Test results published in US12171756B2, “NLRP3 modulators” (Innate Tumor Immunity, Inc., priority 2017, dated 2024).

How the values were obtained:
[1] = tested on: IL-1β production in PMA-differentiated THP-1 cells; experiment: Measurement of IL-1β production in PMA-differentiated THP-1 cells (ELISA, 4 hours); format: cell-based, human; conditions: Homo sapiens, THP-1, human IL-1β production, assayed using one or more of the described procedures, read-out: NLRP3 hIL1B IC50
Outline: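 IL-1β released into supernatant was measured by ELISA after a 4-hour compound exposure (final DMSO 1%, concentrations such as 100 down to 0.1 μM). Cells: THP-1 pretreated 24 h with 10 μg/ml PMA, then trypsinized and seeded at 1×10^6/ml in 2% FBS RPMI.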

[2] = molecular target: T1, human TLR7 (Homo sapiens, UniProt Q9NYK1); experiment: In vitro human TLR7 binding reporter assay (HEK-Blue, NF-kB/AP1-inducible SEAP); format: cell-based; conditions: HEK-Blue human TLR7 SEAP reporter cells; activity range classes; read-out: TLR7 Agonist EC50
T1 construct: host or cells: human HEK-Blue cells (HEK293-derived) co-expressing TLR7 and an NF-kB/AP1-inducible SEAP reporter
T1 sequence (Q9NYK1 27-1049): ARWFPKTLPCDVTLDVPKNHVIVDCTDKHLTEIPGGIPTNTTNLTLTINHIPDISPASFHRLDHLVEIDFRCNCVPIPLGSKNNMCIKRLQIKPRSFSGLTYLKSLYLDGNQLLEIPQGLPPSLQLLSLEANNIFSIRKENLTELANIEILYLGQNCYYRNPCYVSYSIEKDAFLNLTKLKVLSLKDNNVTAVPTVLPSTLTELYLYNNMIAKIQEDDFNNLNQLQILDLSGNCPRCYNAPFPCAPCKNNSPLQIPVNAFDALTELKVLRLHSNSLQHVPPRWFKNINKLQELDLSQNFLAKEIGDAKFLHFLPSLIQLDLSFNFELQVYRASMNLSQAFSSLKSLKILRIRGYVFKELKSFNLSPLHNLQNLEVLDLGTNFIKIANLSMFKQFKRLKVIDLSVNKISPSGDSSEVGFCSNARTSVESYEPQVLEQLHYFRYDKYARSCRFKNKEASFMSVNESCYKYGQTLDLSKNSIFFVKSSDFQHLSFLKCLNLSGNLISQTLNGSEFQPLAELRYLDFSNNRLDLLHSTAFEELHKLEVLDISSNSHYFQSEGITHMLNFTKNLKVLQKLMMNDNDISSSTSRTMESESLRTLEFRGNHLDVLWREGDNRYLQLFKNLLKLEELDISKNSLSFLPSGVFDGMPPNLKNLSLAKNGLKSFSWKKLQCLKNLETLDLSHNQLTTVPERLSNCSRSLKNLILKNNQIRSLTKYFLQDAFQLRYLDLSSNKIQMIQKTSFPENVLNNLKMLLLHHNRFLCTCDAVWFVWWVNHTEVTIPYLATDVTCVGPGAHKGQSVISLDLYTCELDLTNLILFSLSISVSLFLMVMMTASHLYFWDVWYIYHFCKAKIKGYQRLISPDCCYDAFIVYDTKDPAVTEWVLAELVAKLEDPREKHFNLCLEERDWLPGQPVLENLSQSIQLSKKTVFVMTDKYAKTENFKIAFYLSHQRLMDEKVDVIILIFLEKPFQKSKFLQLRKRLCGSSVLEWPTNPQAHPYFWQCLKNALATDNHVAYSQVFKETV
Outline: (§1)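 Cells are seeded and grown for 24 h. Compounds or DMSO are then added and incubated 18 h at 37 °C. Quanti-Blue is added, and SEAP is read after thirty minutes. EC50 values are normalized, with RLU from 50 μM reference standard setting 100% Ymax.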

[3] = molecular target: T2, human TLR8 (Homo sapiens, UniProt Q9NR97); experiment: In vitro human TLR8 binding reporter assay (HEK-Blue, NF-kB/AP1-inducible SEAP); format: cell-based; conditions: HEK-Blue human TLR8 SEAP reporter cells; activity range classes; read-out: TLR8 Agonist EC50
T2 construct: host or cells: human HEK-Blue cells (HEK293-derived) co-expressing TLR8 and an NF-kB/AP1-inducible SEAP reporter
T2 sequence (Q9NR97 27-1041): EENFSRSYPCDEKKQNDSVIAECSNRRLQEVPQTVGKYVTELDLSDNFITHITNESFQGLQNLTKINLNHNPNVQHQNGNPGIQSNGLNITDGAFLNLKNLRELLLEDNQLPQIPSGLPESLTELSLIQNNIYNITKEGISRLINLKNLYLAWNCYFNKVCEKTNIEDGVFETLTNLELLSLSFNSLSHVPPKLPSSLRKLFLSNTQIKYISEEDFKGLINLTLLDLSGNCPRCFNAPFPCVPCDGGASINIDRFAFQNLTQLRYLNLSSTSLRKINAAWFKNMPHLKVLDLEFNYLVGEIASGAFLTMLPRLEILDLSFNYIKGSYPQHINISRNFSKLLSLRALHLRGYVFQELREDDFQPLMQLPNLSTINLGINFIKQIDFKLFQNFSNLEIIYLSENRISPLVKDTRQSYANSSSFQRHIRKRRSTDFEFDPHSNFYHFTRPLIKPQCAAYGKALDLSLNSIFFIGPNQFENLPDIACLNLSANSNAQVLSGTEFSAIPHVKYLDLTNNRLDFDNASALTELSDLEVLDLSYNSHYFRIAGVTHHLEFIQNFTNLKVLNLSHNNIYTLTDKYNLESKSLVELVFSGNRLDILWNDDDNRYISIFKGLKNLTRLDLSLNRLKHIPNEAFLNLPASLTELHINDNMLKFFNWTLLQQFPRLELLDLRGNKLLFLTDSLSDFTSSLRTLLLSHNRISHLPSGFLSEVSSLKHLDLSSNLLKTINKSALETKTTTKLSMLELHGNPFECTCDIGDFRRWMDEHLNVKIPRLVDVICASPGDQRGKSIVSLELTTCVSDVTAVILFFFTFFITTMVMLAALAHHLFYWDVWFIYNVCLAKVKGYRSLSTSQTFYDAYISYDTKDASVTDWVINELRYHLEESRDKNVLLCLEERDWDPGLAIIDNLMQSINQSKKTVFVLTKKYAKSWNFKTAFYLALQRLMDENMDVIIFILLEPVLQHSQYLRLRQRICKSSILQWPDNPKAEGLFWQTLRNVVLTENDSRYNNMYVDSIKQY
Outline: as §1

SMILES | IC50 [1] [µM] | EC50 [2] [µM] | EC50 [3] [µM]
COc1cc2c(NCCCO)cc(N)nc2cc1-c1ccn[nH]1 [Compound 320] | 27.7 | > 100 | > 100
Nc1nc2cc(-c3ccn[nH]3)ccc2cc1CCCN1CCCCC1 [Compound 114] | 4.25 | > 100 | > 100
Cc1nc(CNc2cc(N)nc3cc(-n4cccn4)ccc23)cs1 [Compound 303] | 0.14 | > 100 | > 100
CCN(CC)CCNc1cc(N)nc2cc(-c3ccn[nH]3)ccc12 [Compound 170] | 5.82 | > 100 | > 100
Nc1cc(N[C@H]2CC[C@@H](O)CC2)c2ccc(-c3ccn[nH]3)cc2n1 [Compound 283] | 1.7 | > 100 | > 100
Nc1cc(NCc2cc[nH]n2)c2ccc(-c3ccn[nH]3)cc2n1 [Compound 128, N4-((1H-pyrazol-3-yl)methyl)-7-(1H-pyrazol-5-yl)quinoline-2,4-diamine] | 0.1 | > 100 | > 100
Nc1cc(NCCc2ccccn2)c2ccc(-c3ccn[nH]3)cc2n1 [Compound 151] | 0.31 | > 100 | > 100
Nc1cc(NC(CO)CO)c2ccc(-c3ccn[nH]3)cc2n1 [Compound 315, 2-((2-amino-7-(1H-pyrazol-5-yl)quinolin-4-yl)amino)propane-1,3-diol] | 1.52 | > 100 | > 100
Nc1cc(NCCCCO)c2ccc(-c3ccn[nH]3)cc2n1 [Compound 144] | 0.48 | > 100 | > 100
Nc1cc(NCCc2cccnn2)c2ccc(-c3cc[nH]n3)cc2n1 [Compound 340, 7-(1H-pyrazol-3-yl)-N4-(2-(pyridazin-3-yl)ethyl)quinolin-2,4-diamine] | 0.73 | > 100 | > 100
Nc1cc(NCc2cccnc2)c2ccc(-n3cccn3)cc2n1 [Compound 175] | 0.97 | > 100 | > 100
COCC(O)CNc1cc(N)nc2cc(-c3ccn[nH]3)ccc12 (stereo not drawn) [Compound 254] | 0.21 | > 100 | > 100
Nc1cc(NCc2ccccn2)c2ccc(-n3cccn3)cc2n1 [Compound 300] | 0.54 | > 100 | > 100
Nc1cc(NCCn2cncn2)c2ccc(-c3ccn[nH]3)cc2n1 [Compound 163] | 0.16 | > 100 | > 100
CC(=O)NCCCNc1cc(N)nc2cc(-c3ccn[nH]3)ccc12 [Compound 213, N-(3-((2-amino-7-(1H-pyrazol-5-yl)quinolin-4-yl)amino)propyl)acetamide, 2TFA] | 1.55 | > 100 | > 100
Nc1cc(NCC2(O)CC2)c2ccc(-c3ccn[nH]3)cc2n1 [Compound 147] | 0.99 | > 100 | > 100
Nc1cc(NC2CCC2)c2ccc(-c3ccn[nH]3)cc2n1 [Compound 273] | 0.17 | > 100 | > 100

SMILES | IC50 [1] [µM] | EC50 [2] [µM] | EC50 [3] [µM]
CC(=O)N[C@H]1CCN(c2cc(N)nc3cc(-c4ccn[nH]4)ccc23)C1 [Compound 158] | 35.8 | > 100 | > 100
Nc1cc(N[C@@H]2CCC[C@@H]2O)c2ccc(-c3ccn[nH]3)cc2n1 [Compound 232] | 0.23 | > 100 | > 100
CS(=O)(=O)Nc1ccc(CNc2cc(N)nc3cc(-c4ccn[nH]4)ccc23)cc1 [Compound 258] | 1.84 | > 100 | > 100
Nc1cc(NCc2ncco2)c2ccc(-c3ccn[nH]3)cc2n1 [Compound 249] | 0.05 | > 100 | > 100
Nc1cc(NC2COC2)c2ccc(-c3ccn[nH]3)cc2n1 [Compound 280] | 1.57 | > 100 | > 100
COCc1cc2ccc(-c3ccn[nH]3)cc2nc1N [Compound 113, 3-(methoxymethyl)-7-(1H-pyrazol-5-yl)quinolin-2-amine] | 11.9 | > 100 | > 100
Cc1cc2c(NCCCO)cc(N)nc2cc1-c1ccn[nH]1 [Compound 319] | 25.7 | > 100 | > 100
Nc1cc(O[C@H]2COC[C@H]2O)c2ccc(-c3ccn[nH]3)cc2n1 (racemic) [Compound 197] | 2.86 | > 100 | > 100
Nc1cc(-c2cnn(CCO)c2)c2ccc(-c3ccn[nH]3)cc2n1 [Compound 348, 2-(4-(2-amino-7-(1H-pyrazol-5-yl)quinolin-4-yl)-1H-pyrazol-1-yl)ethan-1-ol] | 7.26 | > 100 | > 100
Nc1cc(NCC2CCNC2)c2ccc(-c3ccn[nH]3)cc2n1 (stereo not drawn) [Compound 327] | 4.66 | > 100 | > 100
Nc1cc(N[C@@H]2CCCC[C@@H]2O)c2ccc(-c3ccn[nH]3)cc2n1 [Compound 251] | 0.37 | > 100 | > 100
Cn1cnc(CNc2cc(N)nc3cc(-c4ccn[nH]4)ccc23)c1 [Compound 243] | 1.02 | > 100 | > 100
Nc1cc(OCCCn2cccn2)c2ccc(-c3ccn[nH]3)cc2n1 [Compound 196] | 1.11 | > 100 | > 100
C[C@H](O)CNc1cc(N)nc2cc(-c3ccn[nH]3)ccc12 [Compound 134] | 0.29 | > 100 | > 100
Nc1cc(O[C@H]2CC[C@H](O)CC2)c2ccc(-c3ccn[nH]3)cc2n1 [Compound 191] | 0.63 | > 100 | > 100
COc1cccc(CNc2cc(N)nc3cc(-c4ccn[nH]4)ccc23)c1 [Compound 259] | 0.64 | > 100 | > 100
CNc1cc(N)nc2cc(-c3ccn[nH]3)ccc12 [Compound 253] | 0.27 | > 100 | > 100
